“And” between values parts separate entries of the source, which are not always exact repeats. Equal values may be shown once. HELM strings list units from the 5' end as sugar, base in round brackets, then linkage (d deoxyribose, r ribose, m 2'-O-methyl, p phosphodiester). Methylation of C is not given here. [moe] = 2'-O-(2-methoxyethyl) (MOE); [cEt] = constrained ethyl (cEt); [sp] = phosphorothioate linkage
Target: HBV
Details: ASO

Row | Substance | target mRNA inhibition (HepG2, 0.07 µM) | further results
1 | RNA1{[moe](A)[sp].[cEt](A)[sp].[cEt](A)[sp].d(T)[sp].d(G)[sp].d(G)[sp].d(C)[sp].d(A)[sp].d(C)[sp].d(T)[sp].d(A)[sp].d(G)[sp].d(T)[sp].[cEt](A)[sp].[cEt](A)[sp].[moe](A)}$$$$V2.0 | 51% | –
2 | RNA1{[moe](C)[sp].[moe](G)[sp].[moe](A)[sp].d(A)[sp].d(C)[sp].d(C)[sp].d(A)[sp].d(C)[sp].d(T)[sp].d(G)[sp].d(A)[sp].d(A)[sp].[moe](C)[sp].[moe](A)[sp].[moe](A)[sp].[moe](A)[sp].[moe](T)}$$$$V2.0 | 60% and 50% | –
3 | RNA1{[moe](G)[sp].[cEt](G)[sp].d(C)[sp].d(A)[sp].d(T)[sp].d(A)[sp].d(G)[sp].d(C)[sp].d(A)[sp].d(G)[sp].d(C)[sp].d(A)[sp].[cEt](G)[sp].[moe](G)[sp].[cEt](A)[sp].[moe](T)}$$$$V2.0 | 74% and 75% | –
4 | RNA1{[moe](A)[sp].[moe](G)[sp].[moe](A)[sp].[moe](T)[sp].[moe](G)[sp].d(A)[sp].d(G)[sp].d(G)[sp].d(C)[sp].d(A)[sp].d(T)[sp].d(A)[sp].d(G)[sp].d(C)[sp].[moe](A)[sp].[moe](G)}$$$$V2.0 | 41% and 31% | –
5 | RNA1{[moe](A)[sp].[moe](C)[sp].[moe](G)[sp].[moe](G)[sp].[moe](G)[sp].[moe](C)[sp].d(A)[sp].d(A)[sp].d(C)[sp].d(A)[sp].d(T)[sp].d(A)[sp].d(C)[sp].d(C)[sp].d(T)[sp].[moe](T)[sp].[moe](G)}$$$$V2.0 | 0% | –
6 | RNA1{[moe](C)[sp].[moe](A)[sp].[moe](C)[sp].[moe](T)[sp].[moe](A)[sp].d(G)[sp].d(T)[sp].d(A)[sp].d(A)[sp].d(A)[sp].d(C)[sp].d(T)[sp].d(G)[sp].d(A)[sp].[moe](G)[sp].[moe](C)[sp].[moe](C)}$$$$V2.0 | 71% and 62% | –
7 | RNA1{[moe](G)[sp].[moe](A)[sp].[moe](A)[sp].d(G)[sp].d(T)[sp].d(C)[sp].d(C)[sp].d(A)[sp].d(C)[sp].d(C)[sp].d(A)[sp].d(C)[sp].d(G)[sp].[cEt](A)[sp].[cEt](G)[sp].[cEt](T)}$$$$V2.0 | 34% and 33% | –
8 | RNA1{[moe](G)[sp].[moe](A)[sp].d(A)[sp].d(C)[sp].d(C)[sp].d(A)[sp].d(C)[sp].d(T)[sp].d(G)[sp].d(A)[sp].d(A)[sp].[moe](C)[sp].[moe](A)[sp].[moe](A)[sp].[moe](A)[sp].[moe](T)}$$$$V2.0 | 37% and 25% | –
9 | RNA1{[moe](T)[sp].[cEt](T)[sp].[cEt](A)[sp].d(T)[sp].d(G)[sp].d(C)[sp].d(C)[sp].d(T)[sp].d(A)[sp].d(C)[sp].d(A)[sp].d(G)[sp].d(C)[sp].[cEt](C)[sp].[cEt](T)[sp].[moe](C)}$$$$V2.0 | 48% and 23% | –
10 | RNA1{[moe](G)[sp].[moe](A)[sp].[moe](G)[sp].[moe](G)[sp].d(T)[sp].d(G)[sp].d(A)[sp].d(A)[sp].d(G)[sp].d(C)[sp].d(G)[sp].d(A)[sp].d(A)[sp].[moe](G)[sp].[moe](T)[sp].[moe](G)[sp].[moe](C)}$$$$V2.0 | 63% and 54% | –
11 | RNA1{[moe](A)[sp].[moe](A)[sp].d(G)[sp].d(C)[sp].d(G)[sp].d(A)[sp].d(A)[sp].d(G)[sp].d(T)[sp].d(G)[sp].d(C)[sp].[moe](A)[sp].[moe](C)[sp].[moe](A)[sp].[moe](C)[sp].[moe](G)[sp].[moe](G)}$$$$V2.0 | 88% and 80% | target mRNA inhibition (HepG2, 0.0092593 µM): 11%; target mRNA inhibition (HepG2, 0.0277778 µM): 27%; target mRNA inhibition (HepG2, 0.0833333 µM): 58%; target mRNA inhibition (HepG2, 0.25 µM): 80%
12 | RNA1{[moe](G)[sp].[moe](T)[sp].[moe](G)[sp].[moe](C)[sp].[moe](A)[sp].d(G)[sp].d(A)[sp].d(G)[sp].d(G)[sp].d(T)[sp].d(G)[sp].d(A)[sp].d(A)[sp].d(G)[sp].[moe](C)[sp].[moe](G)[sp].[moe](A)}$$$$V2.0 | 68% and 62% | –
13 | RNA1{[moe](A)[sp].[cEt](A)[sp].[cEt](G)[sp].d(G)[sp].d(C)[sp].d(A)[sp].d(C)[sp].d(A)[sp].d(G)[sp].d(C)[sp].d(T)[sp].d(T)[sp].d(G)[sp].[cEt](G)[sp].[cEt](A)[sp].[moe](G)}$$$$V2.0 | 32% and 15% | –
14 | RNA1{[moe](A)[sp].[moe](G)[sp].d(G)[sp].d(T)[sp].d(G)[sp].d(A)[sp].d(A)[sp].d(G)[sp].d(C)[sp].d(G)[sp].d(A)[sp].[moe](A)[sp].[moe](G)[sp].[moe](T)[sp].[moe](G)[sp].[moe](C)}$$$$V2.0 | 70% and 60% | –
15 | RNA1{[moe](G)[sp].[moe](A)[sp].d(A)[sp].d(G)[sp].d(C)[sp].d(G)[sp].d(A)[sp].d(A)[sp].d(G)[sp].d(T)[sp].d(G)[sp].[moe](C)[sp].[moe](A)[sp].[moe](C)[sp].[moe](A)[sp].[moe](C)[sp].[moe](G)}$$$$V2.0 | 79% and 74% | –
16 | RNA1{[moe](G)[sp].[moe](C)[sp].[moe](A)[sp].d(G)[sp].d(T)[sp].d(A)[sp].d(T)[sp].d(G)[sp].d(G)[sp].d(A)[sp].d(T)[sp].d(C)[sp].d(G)[sp].[cEt](G)[sp].[cEt](C)[sp].[cEt](A)}$$$$V2.0 | 74% and 85% | target mRNA inhibition (HepG2, 0.0092593 µM): 4%; target mRNA inhibition (HepG2, 0.0277778 µM): 36%; target mRNA inhibition (HepG2, 0.0833333 µM): 58%; target mRNA inhibition (HepG2, 0.25 µM): 84%
17 | RNA1{[moe](C)[sp].[moe](G)[sp].[moe](A)[sp].d(A)[sp].d(C)[sp].d(C)[sp].d(A)[sp].d(C)[sp].d(T)[sp].d(G)[sp].d(A)[sp].d(A)[sp].d(C)[sp].[cEt](A)[sp].[cEt](A)[sp].[cEt](A)}$$$$V2.0 | 41% and 54% | –
18 | RNA1{[moe](A)[sp].[moe](C)[sp].[moe](C)[sp].d(A)[sp].d(A)[sp].d(T)[sp].d(T)[sp].d(T)[sp].d(A)[sp].d(T)[sp].d(G)[sp].d(C)[sp].d(C)[sp].[cEt](T)[sp].[cEt](A)[sp].[cEt](C)}$$$$V2.0 | 24% and 28% | –
19 | RNA1{[moe](G)[sp].[moe](A)[sp].[moe](T)[sp].[moe](G)[sp].[moe](A)[sp].[moe](G)[sp].d(G)[sp].d(C)[sp].d(A)[sp].d(T)[sp].d(A)[sp].d(G)[sp].d(C)[sp].d(A)[sp].d(G)[sp].[moe](C)[sp].[moe](A)}$$$$V2.0 | 63% and 44% | –
20 | RNA1{[moe](C)[sp].[moe](T)[sp].[moe](G)[sp].[moe](G)[sp].d(A)[sp].d(G)[sp].d(C)[sp].d(C)[sp].d(A)[sp].d(C)[sp].d(C)[sp].d(A)[sp].d(G)[sp].[moe](C)[sp].[moe](A)[sp].[moe](G)}$$$$V2.0 | 57% and 60% | –
21 | RNA1{[moe](G)[sp].[moe](G)[sp].[moe](C)[sp].d(A)[sp].d(T)[sp].d(A)[sp].d(G)[sp].d(C)[sp].d(A)[sp].d(G)[sp].d(C)[sp].d(A)[sp].d(G)[sp].[moe](G)[sp].[moe](A)[sp].[moe](T)[sp].[moe](G)}$$$$V2.0 | – | target mRNA inhibition (HepG2, 0.0092593 µM): 11%; target mRNA inhibition (HepG2, 0.009375 µM): 42%; target mRNA inhibition (HepG2, 0.01875 µM): 30%; target mRNA inhibition (HepG2, 0.0277778 µM): 28%; target mRNA inhibition (HepG2, 0.0375 µM): 43%; target mRNA inhibition (HepG2, 0.075 µM): 61%; target mRNA inhibition (HepG2, 0.0833333 µM): 60%; target mRNA inhibition (HepG2, 0.15 µM): 77%; target mRNA inhibition (HepG2, 0.25 µM): 77%; target mRNA inhibition (HepG2, 0.3 µM): 91%
22 | RNA1{[moe](A)[sp].[moe](C)[sp].[moe](G)[sp].[moe](T)[sp].[moe](G)[sp].d(C)[sp].d(A)[sp].d(G)[sp].d(A)[sp].d(G)[sp].d(G)[sp].d(T)[sp].d(G)[sp].d(A)[sp].[moe](A)[sp].[moe](G)}$$$$V2.0 | 6% and 13% | –
23 | RNA1{[moe](A)[sp].[moe](C)[sp].d(T)[sp].d(G)[sp].d(G)[sp].d(A)[sp].d(G)[sp].d(C)[sp].d(C)[sp].d(A)[sp].d(C)[sp].[moe](C)[sp].[moe](A)[sp].[moe](G)[sp].[moe](C)[sp].[moe](A)}$$$$V2.0 | 53% and 42% | –
24 | RNA1{[moe](G)[sp].[moe](A)[sp].d(G)[sp].d(G)[sp].d(C)[sp].d(A)[sp].d(T)[sp].d(A)[sp].d(G)[sp].d(C)[sp].d(A)[sp].[moe](G)[sp].[moe](C)[sp].[moe](A)[sp].[moe](G)[sp].[moe](G)[sp].[moe](A)}$$$$V2.0 | 64% and 47% | –
25 | RNA1{[moe](A)[sp].[moe](C)[sp].d(C)[sp].d(A)[sp].d(C)[sp].d(T)[sp].d(G)[sp].d(A)[sp].d(A)[sp].d(C)[sp].d(A)[sp].[moe](A)[sp].[moe](A)[sp].[moe](T)[sp].[moe](G)[sp].[moe](G)[sp].[moe](C)}$$$$V2.0 | 58% and 68% | –
26 | RNA1{[moe](A)[sp].[moe](G)[sp].[moe](A)[sp].d(A)[sp].d(G)[sp].d(T)[sp].d(C)[sp].d(C)[sp].d(A)[sp].d(C)[sp].d(C)[sp].d(A)[sp].d(C)[sp].[cEt](G)[sp].[cEt](A)[sp].[cEt](G)}$$$$V2.0 | 42% and 55% | –
27 | RNA1{[moe](T)[sp].[moe](G)[sp].d(A)[sp].d(A)[sp].d(G)[sp].d(C)[sp].d(G)[sp].d(A)[sp].d(A)[sp].d(G)[sp].d(T)[sp].[moe](G)[sp].[moe](C)[sp].[moe](A)[sp].[moe](C)[sp].[moe](A)}$$$$V2.0 | 69% and 54% | –
28 | RNA1{[moe](A)[sp].[cEt](G)[sp].[cEt](G)[sp].d(C)[sp].d(A)[sp].d(T)[sp].d(A)[sp].d(G)[sp].d(C)[sp].d(A)[sp].d(G)[sp].d(C)[sp].d(A)[sp].[cEt](G)[sp].[cEt](G)[sp].[moe](A)}$$$$V2.0 | 72% and 70% | –
29 | RNA1{[moe](A)[sp].[moe](G)[sp].[moe](C)[sp].d(G)[sp].d(A)[sp].d(A)[sp].d(G)[sp].d(T)[sp].d(G)[sp].d(C)[sp].d(A)[sp].d(C)[sp].d(A)[sp].[cEt](C)[sp].[cEt](G)[sp].[cEt](G)}$$$$V2.0 | 82% and 86% | target mRNA inhibition (HepG2, 0.0092593 µM): 17%; target mRNA inhibition (HepG2, 0.0277778 µM): 49%; target mRNA inhibition (HepG2, 0.0833333 µM): 79%; target mRNA inhibition (HepG2, 0.25 µM): 90%
30 | RNA1{[moe](T)[sp].[moe](G)[sp].[moe](A)[sp].d(A)[sp].d(G)[sp].d(C)[sp].d(G)[sp].d(A)[sp].d(A)[sp].d(G)[sp].d(T)[sp].d(G)[sp].[moe](C)[sp].[moe](A)[sp].[moe](C)[sp].[moe](A)[sp].[moe](C)}$$$$V2.0 | 74% and 60% | –
